From patent publication US20110039809A1 (priority 2008, published 2011)

Assays:
[1] = cited from earlier work
[2] = Clinical trial: plasma 25-OH D after single oral bolus (pharmacokinetics); settings: single oral dose 140 μg of each active
Description: Subjects were randomly assigned to one of […] treatment groups (i.e., daily, weekly, bolus as single dose, and bolus as combination dose). Each group included five subjects. They are followed for four months in Zürich, Switzerland during the winter.
Equimolar quantities of both substances were investigated. The regimen was based on 20 μg/day (or its equivalent on a weekly basis) of 25-OH D3.
Each dosage was consumed orally at breakfast. The duration of the study was four months for the “Daily” and “Weekly” groups. Subjects enrolled in the “Bolus” group consumed orally a single dosage at the second study visit.
Plasma concentrations of 25-OH D3 (e.g., peak and steady state) were determined by obtaining samples from the subjects at various times after the dosage was ingested. […] The assessments continued on Monday of Weeks 3, 5, 7, 9, 11, 13 and 15.

[3] = system: bone-specific alkaline phosphatase (BAP); experiment: Clinical trial: bone-specific alkaline phosphatase (BAP), serum marker; format: in vivo, human; settings: for BAP, GLM least square mean after 4 months: daily 20 μg or weekly 140 μg oral, adjusted for baseline, age, body mass index, postmenopausal women
Description: (§1) Each group included five subjects.
(§2) Equimolar quantities of both substances were investigated.
(§3) Each dosage was consumed orally at breakfast.
(§4) Treatment duration was 4 months.

deoxypyridinoline (DPD) = experiment: Clinical trial: bone resorption marker deoxypyridinoline (DPD), urine marker; format: in vivo, human; settings: for DPD, GLM least square mean after 4 months: daily 20 μg or weekly 140 μg oral, adjusted for baseline, age, body mass index, postmenopausal women
Description: as §1, §2, §3, §4

[4] = daily 20 μg or weekly 140 μg, 4 months, repeated measurement analysis over 13 visits
[5] = daily or weekly treatment, identical dosages, 4 months

Question: For 25-hydroxyvitamin D, which “Blood concentration above which hypercalcemia may occur” value ([1]; in vivo) is on record?
Answer: Its value is “greater than 375 nmol/L”.

Question: For `C=C1CC[C@H](O)C/C1=C/C=C1\CCC[C@]2(C)[C@@H]([C@H](C)CCCC(C)(C)O)CC[C@@H]12` [25-OH D3, 25-hydroxyvitamin D3], which “Time span with increase in plasma 25-OH D levels by at least 30 nmol/L” value [2] is on record?
Answer: Its value is 4 to 49 h.

Question: And the “BAP, GLM least square mean after 4 months” value [3]?
Answer: The value was 74.7 IU/L.

Question: And the “BAP change vs. Daily/weekly Vitamin D3” value [3, 4]?
Answer: The value was −2.4%.

Question: And the “Reduction of BAP versus Vitamin D3” value [3, 5]?
Answer: The value was 2.4%.

Question: What about the “DPD, GLM least square mean after 4 months” value (deoxypyridinoline (DPD)) of the same compound?
Answer: Its value is 8.2 nmol/mmol creatine.

Question: What about the “DPD change vs. Daily/weekly Vitamin D3” value (deoxypyridinoline (DPD); [4]) of the same compound?
Answer: The value was −17.0%.

Question: What about the “Reduction of DPD versus Vitamin D3” value (deoxypyridinoline (DPD); [5]) of the same compound?
Answer: Its value is 17.0%.

Question: With `C=C1CC[C@H](O)C/C1=C/C=C1\CCC[C@]2(C)[C@@H]([C@H](C)CCCC(C)C)CC[C@@H]12` [Vitamin D3, cholecalciferol] as the compound, how does the “Time span with increase in plasma 25-OH D levels by at least 30 nmol/L” value [2] read?
Answer: Its value is “no increase of that magnitude was observed”.

Question: What about the “BAP, GLM least square mean after 4 months” value [3] of the same compound?
Answer: Its value is 76.5 IU/L.

Question: And the “DPD, GLM least square mean after 4 months” value (deoxypyridinoline (DPD))?
Answer: The value was 9.8 nmol/mmol creatine.

Question: Which “Blood concentration of 25-hydroxyvitamin D after ingestion of the safe upper level as dietary supplement” value ([1]; 250 μg/day vitamin D) does the source give for Vitamin D here?
Answer: The value was “about 200 nmol/L”.
